Series [1] concerns wild type C57B1/6 male mice. Kind of series: Imiquimod-induced type 17 skin inflammation, topical treatment. Conditions: for Il17a and Il17f expression in the skin (qRT-PCR) / skin inflammation (ear thickness): imiquimod 6 days, then continued imiquimod plus topical twice a day: LRE1 3%, Clobetasol 0.05%; for skin inflammation (ear thickness): Example 1 […]. It is filed as in vivo, mouse. The method, then:
Wild type C57B1/6 male mice 8-10 week old were purchased from Jackson labs. A 7 mm diameter circle was shaved and treated with Nair on the flank. Baseline ear thickness was measured. For 5 days, mice received daily treatment of 30 mg of 5% imiquimod cream (Taro) to each ear and to the 7 mm area on the flank. Ear thickness was recorded on days 3 and 5 to ensure peak inflammation had occurred. Mice were then randomized into three cohorts: vehicle, LRE1, and Clobetasol. […] Treatment with imiquimod was continued during this period as above. Ear thickness was recorded every day before the first dose of drug. On day 11, all mice were euthanized. A 7 mm punch biopsy was collected from the flank and both ears were removed. Skin was stored in RNAlater (Sigma) for qPCR or 10% formalin for immunohistochemistry.
For tissue, RNA was isolated according to specifications of the RNA easy plus universal mini kit (Qiagen). Tissue was homogenized using stainless steel beads in a bead beater. For frozen cell pellets, RNA was isolated according to specifications of the RNA easy plus mini kit (Qiagen). Samples were homogenized using Qiashredder columns (Qiagen). RNA quality control was performed using a nanodrop spectrophotometer. cDNA was made using the high-capacity rna-to-cdna kit (thermo fischer). The applied biosystems power SYBR green PCR master mix was used for qPCR. 40 cycles with annealing temperatures of 60 degrees celsius and a melting curve were performed using the QuantStudio 6 real-time PCR instrument (thermo fischer). Delta delta CT analysis was performed to determine relative transcription amongst samples normalized to GAPDH.
Background: Real-time PCR tracks product formation cycle by cycle.

The test system of series [2] is purified recombinant human sAC protein. It counts as biochemical. The following applies: 1 mM ATP, 2 mM CaCl2, 4 mM MgCl2, 40 mM NaHCO3. The method, then: Assays for sAC activity using purified protein were performed in 100 μl reactions containing 4 mM MgCl2, 2 mM CaCl2, 1 mM ATP, 40 mM NaHCO3, 50 mM Tris pH 7.5, and 3 mM DTT. Each reaction contained ˜1,000,000 counts of α-^32P labeled ATP.
All in vitro adenylyl cyclase activity assays were performed via the “two-column” method measuring the conversion of [α-^32P] ATP into [^32P] cAMP, as previously described [References 81, 82]. Briefly, human sACt protein [Reference 21] was incubated in buffer containing 50 mM Tris-HCl, pH 7.5, 4 mM MgCl2, 2 mM CaCl2, 1 mM ATP, 3 mM DTT, 40 mM NaHCO3 in the presence of the indicated concentrations of different sAC inhibitors or vehicle (DMSO).

For series [3] the following is noted: cited from earlier work.

The values below come from patent publication US20240239774A1, “SOLUBLE ADENYLYL CYCLASE (SAC) INHIBITORS AND USES THEREOF” (Cornell University, priority 2021, published 2024).

For `C[C@H]1C[C@H]2[C@@H]3CCC4=CC(=O)C=C[C@]4(C)[C@@]3(F)[C@@H](O)C[C@]2(C)[C@@]1(O)C(=O)CCl` [Clobetasol], in series [1], the “Il17a and Il17f expression in the skin (qRT-PCR)” value is “significant reductions in Il17a and Il17f expression”; the “skin inflammation (ear thickness)” value is given as “significant reduction in skin inflammation”.
Regarding `Cn1cc(Cc2cccc(Cl)c2)c(-c2cc(Cl)nc(N)n2)n1` [Example 11], the half-inhibitory concentration (IC50) (commonly the concentration that inhibits the measured activity by half) in series [2] is 0.075 µM.
As to `Cn1cc(Cc2ccc(Cl)cc2)c(-c2cc(Cl)nc(N)n2)n1` [Example 13], the IC50 in series [2] was roughly 1 µM.
Consider `Cn1cc(Cc2ccccc2Cl)c(-c2cc(Cl)nc(N)n2)n1` [Example 15], for which the 50% inhibitory concentration (IC50) in series [2] was found to be 0.06 µM.
Take `Nc1nc(Cl)cc(-c2nn(C(F)F)cc2Cc2ccccc2)n1` [Example 18]: the IC50 in series [2] was 0.11 µM.
Turning to `COc1ccccc1Cc1cn(C)nc1-c1cc(Cl)nc(N)n1` [Example 28], the half-maximal inhibitory concentration (IC50) in series [2] turned out to be 0.058 µM.
Regarding `CNC(=O)c1ccccc1Cc1cn(C)nc1-c1cc(Cl)nc(N)n1` [Example 52], the IC50 in series [2] amounted to 1.2 µM.
With `Cn1cc(Cc2ccccc2OCCN2CCOCC2)c(-c2cc(Cl)nc(N)n2)n1` [Example 69, 4-chloro-6-[1-methyl-4-[[2-(2-morpholinoethoxy)phenyl]methyl]pyrazol-3-yl]pyrimidin-2-amine], the reduction in inflammation in series [1] (imiquimod for one week, then imiquimod plus compound, over 4 days, N=5) stood at 50%.
On to `Nc1nc(Cl)cc(-c2nn(C(F)F)cc2Cc2ccccc2OCC(=O)N2CCOCC2)n1` [Example 95], for which, in series [2], the concentration for half-maximal inhibition (IC50) is 0.015 µM.
As for `Nc1nc(Cl)cc(N(Cc2ccsc2)C2CC2)n1` [LRE1], the “inflammation in the ears measured by ear calipers” value in series [1] (applied at the same time as imiquimod, N=5) is recorded as “reduce the inflammation”. Further, in series [1], the “Il17a and Il17f expression in the skin (qRT-PCR)” value was “significant reductions in Il17a and Il17f expression”; the “skin inflammation (ear thickness)” value is “significant reduction in skin inflammation”.
Turning to `CCCc1nn(C)c2c(=O)[nH]c(-c3cc(S(=O)(=O)N4CCN(C)CC4)ccc3OCC)nc12` [sildenafil], in series [3], the half-lives was 4 to 5 h.
Regarding `CCCc1nc(C)c2c(=O)[nH]c(-c3cc(S(=O)(=O)N4CCN(CC)CC4)ccc3OCC)nn12` [vardenafil], the half-lives in series [3] was 4 to 5 h.
